Values of other authors, collected in patent US20220062479A1, “Disinfection Bomb” (priority 2020, published 2022).

Experiments:
Staphylococcus aureus = conditions: by way of background
Streptococcus pyogenes = conditions: by way of background
Pseudomonas aeruginosa = conditions: it has been shown
E. coli = conditions: it has been shown

CCO [ethanol]
contact time to kill Staphylococcus aureus (Staphylococcus aureus): at least 10 seconds
contact time to kill Streptococcus pyogenes (Streptococcus pyogenes): at least 10 seconds
contact time that allows the ethanol to kill Pseudomonas aeruginosa (Pseudomonas aeruginosa): 10 s
contact time that allows the ethanol to kill E. coli (E. coli): 10 s
